In patent US20140094465A1, “Compounds as S-Nitrosoglutathione Reductase Inhibitors” (N30 PHARMACEUTICALS, INC., priority 2011, published 2014):

Key:
[1] = tested on: ovalbumin (OVA)-induced asthma; experiment: Mouse model of ovalbumin (OVA)-induced asthma (Penh, eosinophil infiltrate in BALF); type: in vivo; settings: for decrease of eosinophil infiltration in BAL: three oral doses of 10 mg/kg at 48 h, 24 h, and 1 h prior to assessment
Procedure: A mouse model of ovalbumin (OVA)-induced asthma was used to screen GSNOR inhibitors for efficacy against methacholine (MCh)-induced bronchoconstriction/airway hyper-responsiveness. This is a widely used and well characterized model that presents with an acute, allergic asthma phenotype with similarities to human asthma. Efficacy of GSNOR inhibitors was assessed using a protocol in which GSNOR inhibitors were administered after OVA sensitization and airway challenge, and prior to challenge with MCh. Bronchoconstriction in response to challenge with increasing doses of MCh was assessed using whole body plethysmography (Penh; Buxco). The amount of eosinophil infiltrate into the bronchoaveolar lavage fluid (BALF) was also determined as a measure of lung inflammation. The effects of GSNOR inhibitors were compared to vehicles and to Combivent (inhaled; IH) as the positive control.
OVA (500 μg/ml) in PBS was mixed with equal volumes of 10% (w/v) aluminum potassium sulfate in distilled water and incubated for 60 min. at room temperature after adjustment to pH 6.5 using 10 N NaOH. After centrifugation at 750×g for 5 min, the OVA/alum pellet was resuspended to the original volume in distilled water. Mice received an intraperitoneal (IP) injection of 100 μg OVA (0.2 mL of 500 μg/mL in normal saline) complexed with alum on day 0. Mice were anesthetized by IP injection of a 0.2-mL mixture of ketamine and xylazine (0.44 and 6.3 mg/mL, respectively) in normal saline and were placed on a board in the supine position. Two hundred fifty micrograms (100 μl of a 2.5 mg/ml) of OVA (on day 8) and 125 μg (50 μl of 2.5 mg/ml) OVA (on days 15, 18, and 21) were placed on the back of the tongue of each animal.
In vivo airway responsiveness to methacholine was measured 24 h after the last OVA challenge in conscious, freely moving, spontaneously breathing mice with whole body plethysmography using a Buxco chamber (Wilmington, N.C.). Mice were challenged with aerosolized saline or increasing doses of methacholine (5, 20, and 50 mg/mL) generated by an ultrasonic nebulizer for 2 min. The degree of bronchoconstriction was expressed as enhanced pause (Penh), a calculated dimensionless value, which correlates with the measurement of airway resistance, impedance, and intrapleural pressure in the same mouse. Penh readings were taken and averaged for 4 min. after each nebulization challenge. Penh is calculated as follows: Penh=[(Te/Tr−1)×(PEF/PIF)], where Te is expiration time, Tr is relaxation time, PEF is peak expiratory flow, and PIF is peak inspiratory flow×0.67 coefficient. The time for the box pressure to change from a maximum to a user-defined percentage of the maximum represents the relaxation time. The Tr measurement begins at the maximum box pressure and ends at 40%.
After measurement of airway hyper-reactivity, the mice were exsanguinated by cardiac puncture, and then BALF was collected from either both lungs or from the right lung after tying off the left lung at the mainstem bronchus. Total BALF cells were counted from a 0.05 mL aliquot, and the remaining fluid was centrifuged at 200×g for 10 min at 4° C. Cell pellets were resuspended in saline containing 10% BSA with smears made on glass slides. Eosinophils were stained for 5 min. with 0.05% aqueous eosin and 5% acetone in distilled water, rinsed with distilled water, and counterstained with 0.07% methylene blue. Alternatively, eosinophils and other leukocytes were stained with DiffQuik.
GSNOR inhibitors were reconstituted in phosphate buffered saline (PBS), pH 7.4, or 0.5% w/v carboxy methylcellulose at concentrations ranging from 0.00005 to 3 mg/mL. GSNOR inhibitors were administered to mice (10 mL/kg) as a single dose or multiple dose either intravenously (IV) or orally via gavage. Dosing was performed from 30 min. to 72 h prior to MCh challenge. Effects of GSNOR inhibitors were compared to vehicle dosed in the same manner.
Combivent was used as the positive control in all studies. […]

[2] = biological target: T1, S-nitrosoglutathione reductase (GSNOR) (Homo sapiens, UniProt P11766); experiment: GSNOR assay (inhibition of GSNOR activity, NADH absorbance at 340 nm); type: biochemical; settings: GSNOR inhibitor activity, Tables 1-6; read-out: IC50 range
T1 construct: made in house; host or cells: E. coli
How it was run: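 Recombinant GSNOR purified from E. coli, tag removed. Final conditions: 100 mM NaPO4 pH 7.4, 0.240 mM GSNO, 0.300 mM NADH, 0.5 μg/mL enzyme, 1% DMSO; NADH loss followed as 340 nm absorbance change over 3 min at 25 °C. Compounds 100–0.003 μM, triplicate; IC50 by curve analysis.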

[3] = single oral dose of 10 mg/kg at 24 h prior to assessment

T1 sequence (P11766 whole entry): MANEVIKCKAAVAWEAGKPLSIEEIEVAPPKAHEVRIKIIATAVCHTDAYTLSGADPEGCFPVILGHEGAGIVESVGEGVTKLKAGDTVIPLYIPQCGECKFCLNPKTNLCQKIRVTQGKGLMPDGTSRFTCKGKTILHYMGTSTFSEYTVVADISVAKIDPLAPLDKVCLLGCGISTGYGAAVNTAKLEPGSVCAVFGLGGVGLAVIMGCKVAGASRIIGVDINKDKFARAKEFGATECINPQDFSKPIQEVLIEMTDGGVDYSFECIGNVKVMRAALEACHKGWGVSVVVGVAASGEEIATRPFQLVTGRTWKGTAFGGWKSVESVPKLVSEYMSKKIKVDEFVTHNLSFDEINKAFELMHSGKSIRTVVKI

SMILES | IC50 [2] [nM] | decrease of eosinophil infiltration in BAL [1] | decrease of AUC for Penh ([1]; single IV dose of 10 mg/kg at 24 h prior to assessment) | decrease of AUC for Penh [1, 3] | decrease of eosinophil infiltration into BALF [1, 3]
O=C(O)c1ccc(-c2ccc3cc(O)ccc3c2)c(F)c1 [III-2] | < 100 | 44 % of vehicle control |  |  | 
O=c1c(-c2ccc(-c3nnn[nH]3)cc2)c(C(F)(F)F)oc2cc(O)ccc12 [IV-23] | < 100 |  | 39 % of vehicle control |  | 
O=c1[nH]c(-c2ccc(-c3c(C(F)(F)F)oc4cc(O)ccc4c3=O)cc2)no1 [IV-31] | < 100 |  |  | 18 % of vehicle control | 82 % of vehicle control

Now from value to compound, other results behind:

IC50 [2] [nM] | SMILES | decrease of eosinophil infiltration in BAL [1] | decrease of AUC for Penh ([1]; single IV dose of 10 mg/kg at 24 h prior to assessment) | decrease of AUC for Penh [1, 3] | decrease of eosinophil infiltration into BALF [1, 3]
< 100 | O=c1c2ccc(O)cc2oc(C(F)(F)F)c1[C@H]1CC[C@H](C(=O)O)CC1 [IV-25] | 12 % of vehicle control |  | 43 % of vehicle control | 42 % of vehicle control
< 100 | O=C(O)c1ccc(-c2c(C(F)(F)F)oc3cc(O)ccc3c2=O)c(F)c1 [IV-38] | 36 % of vehicle control |  |  | 
